The values below come from patent publication US8884097B1, “Method to condition an invertebrate to detect a concentration range of a chemical compound” (The United States of America as represented by the …, priority 2011, dated 2014).

Experiment [1] has as its system Microplitis croceipes. Description: Conditioned food-searching response of wasps to individual odor concentrations. It is filed as in vivo. As for the experimental part:
Female wasps were conditioned to a 30 μl solution of indole (Spectrum Chemical MFG CORP., Gardena, Calif.) dissolved in dichloromethane at either 100 μg/ml or 1 μg/ml. The solvent was allowed to evaporate for one min before the assay. The conditioning arena consisted of a 9 cm d, 1.5 cm h metal ring covered with aluminum foil that was placed inside a glass petri dish (10 cm d and 1 cm h) containing the compound-laden filter paper (2.5 cm d). A small (4 mm^2) piece of filter paper laden with the sugar water (1 molar sucrose solution) was placed at the center of the metal ring covered with aluminum foil. A total of 9 holes (ca 1 mm d) were punctured around the tissue paper so that diffusing volatiles could be perceived as they fed on the sugar water. Wasps were allowed to feed for 10 s three times with 30 s between feedings. All conditioning and testing was done under a chemical fume hood. The conditioning arena was replaced with fresh materials after every 5 females (ca 10-15 min). Females were placed in a Plexiglas cage with water for 2 hrs before testing. A total of 20 females were conditioned per day over 2 days.
All test solutions were allowed to evaporate for 1 minute before being presented to the wasps. The test arena was the same as the conditioning arena except that only a single (ca 1 mm d) hole was punctured at the center of the aluminum foil covered metal ring. Wasps were placed close to the hole using a transfer vial. Measured were food-specific behaviors (Wäckers et al., 2002) which included intense substrate antennation with frequent tight turning, a distinct lowering of the head for food searching and attempts to enter the hole. Responses parameters included a recordation of both the number of turns and overall duration of the food searching. Each female was presented a single odor concentration. A total of 20 females (10 to high and 10 to low concentrations) were tested per day over 2 days. Kruskal-Wallis non-parametric ANOVA was used to test the effect of concentration on wasp responses (StatSoft, Inc. 2003).
The arena and procedure for testing were as described in Example 1. However, the wasps were conditioned via positive food conditioning of sugar-water to indole at 1 μg/ml. Additionally, the same wasp was also negatively food conditioned to 100 μg/ml of indole with water. Each female was test with a single indole concentration at either 100 μg/ml of indole or at 1 μg/ml. A total of 20 females (10 to high and 10 to low concentrations) were tested per day over 2 days.
The arena and procedure for testing were as described in Example 1. However, the wasps were conditioned via positive food conditioning of sugar-water to 30 μl of conditioning solution of skatole dissolved in dichloromethane at either 0.001 μg/ml, 0.01 μg/ml, 0.1 μg/ml, 1 μg/ml, 10 μg/ml, or 100 μg/ml. A 1 molar sucrose solution was used as the unconditioned stimulus (reward).

Experiment [2] relates to Microplitis croceipes. Described as above. It is filed as in vivo. The settings on record: positively conditioned to 100 μg/ml and 1000 μg/ml, tested at 1000 μg/ml.
Where [3] appears, read: conditioned to 1 μg/ml, tested at 1 μg/ml.
[4] abbreviates: conditioned to 100 μg/ml, tested at 100 μg/ml.
Setting [5] is: conditioned to 0.1 μg/ml, tested at 0.1 μg/ml.
Setting [6] is: conditioned to 0.1 μg/ml, tested at 1 μg/ml.
Setting [7] is: conditioned to 1 μg/ml, tested at 0.1 μg/ml.
Setting [8] is: conditioned to 1 μg/ml, tested at 10 μg/ml.
Setting [9] is: conditioned to 10 μg/ml, tested at 1 μg/ml.
Where [10] appears, read: conditioned to 10 μg/ml, tested at 10 μg/ml.

“Also recorded” adds a separate entry of the source.

As to `c1ccc2[nH]ccc2c1` [indole], the “response of conditioned wasps (food searching time and turns)” value (from here on “response … (food searching time and turns)”) in experiment [1] (setting [3]) was “responded to the conditioned concentration”; in experiment [1] (conditioned to 1 μg/ml, tested at 100 μg/ml), “responded”; in experiment [1] (conditioned to 100 μg/ml, tested at 1 μg/ml) it was “did not respond”; in experiment [1] (setting [4]), “responded to the conditioned concentration”; in experiment [1] (positively conditioned to 1 μg/ml and negatively conditioned to 100 μg/ml, tested at 1 μg/ml), “responded to the conditioned concentration”; in experiment [1] (positively conditioned to 1 μg/ml and negatively conditioned to 100 μg/ml, tested at 100 μg/ml) it was “did not respond to the negatively conditioned concentration”. The “conditioned response to the individual volatile” value in experiment [1] (single odor experiment) is on record as “respond reliably”. Besides, in experiment [1] (single odor experiment), the “duration of the conditioned response compared with skatole” value is “more prolonged response”.

As for `C[C@]12CCC(=O)C[C@@H]1CC[C@@H]1[C@@H]2CC[C@]2(C)C=CC[C@@H]12` [androstenone, 5α-androst-16-en-3-one], the “response … (food searching time and turns)” value in experiment [1] (conditioned to 0.01 μg/ml, tested at 0.01 μg/ml) was “responded to the conditioning concentration”; in experiment [1] (conditioned to 0.1 μg/ml, tested at 0.01 μg/ml), “only responded to the conditioning concentration”; in experiment [1] (setting [5]) it was “only responded to the conditioning concentration”; in experiment [1] (setting [6]), “only responded to the conditioning concentration”; in experiment [1] (setting [7]) it was “only responded to the conditioning concentration”; in experiment [1] (setting [3]) it was “only responded to the conditioning concentration”. Moreover, the “response … (food searching time and turns)” value in experiment [1] (setting [8]) is “only responded to the conditioning concentration”; in experiment [1] (setting [9]), “did not respond to either concentration”; in experiment [1] (setting [10]) it was “did not respond to either concentration”. In experiment [1] (single odor experiment), the “conditioned response to the individual volatile” value is “weak”.

For the molecule `C=CC(C)=CCC=C(C)C` [ocimene, reference compound], the “response of conditioned wasps to a non-conditioned odor” value in experiment [1] (single odor experiment, non-conditioned floral odor) is on record as “do not respond”.

In the case of `Cc1c[nH]c2ccccc12` [skatole, 3-methyl-indole], the “response … (food searching time and turns)” value in experiment [1] (setting [5]) is “no responses”; in experiment [1] (setting [6]) it was “no responses”; in experiment [1] (setting [7]), “responded to both concentrations; also recorded: able to detect it”; in experiment [1] (setting [3]), “responded to both concentrations”; in experiment [1] (setting [8]), “only responded to the conditioning concentration”; in experiment [1] (setting [9]), “responded to both skatole concentrations”. In addition, the “response … (food searching time and turns)” value in experiment [1] (setting [10]) is “responded to both skatole concentrations”; in experiment [1] (conditioned to 10 μg/ml, tested at 100 μg/ml), “only responded to the conditioning concentration”; in experiment [1] (conditioned to 100 μg/ml, tested at 10 μg/ml) it was “responded to both skatole concentrations”; in experiment [1] (setting [4]), “responded to both skatole concentrations”; in experiment [1] (conditioned to 100 μg/ml, tested at 1 mg/ml) it was “only responded to the conditioning concentration”; in experiment [1] (positively conditioned to 100 μg/ml and 1000 μg/ml, tested at 10 μg/ml), “responded”. Also, the “response … (food searching time and turns)” value is “responded to both of the conditioning concentrations” in experiment [1] (positively conditioned to 100 μg/ml and 1000 μg/ml, tested at 100 μg/ml); “responded to both of the conditioning concentrations” in experiment [2]. Further, the “conditioned response to the individual volatile” value in experiment [1] (single odor experiment) was “respond reliably”.
